Reference: patent US4851209A, “Diagnostic procedures using radio labeled sucralfate and derivatives or precursors thereof” (The Regents of the University of California, priority 1985, dated 1989)

Tests used:
[1] = system: duodenal ulcers; conditions: several clinical trials; cited from earlier work
[2] = system: duodenal and gastric ulcers, gastric erosions, mucosa; conditions: cited from earlier work
[3] = system: pepsin; conditions: cited from earlier work
[4] = stability of tagged material in solution; assay type: physicochemical; conditions: one gram per 10 cc of normal saline
Source text: The tagged material was stable in a solution comprising one gram per 10 cc of normal saline. The solution was given orally as a 10 cc dose. […] A good analogy would be the stars at night vs. the stars during the day. The stars are there in both instances. However, the sky is so bright during the day that star-light is simply lost in the background. […] The potassium salt used for imaging ulcers in Example III can be replaced by other cations compatible in the human body including alkali metal and alkaline earth metal cations such as sodium and calcium.

Substance	safety and efficacy in healing duodenal ulcers [1]	binding to ulcerated areas in the upper G. I. tract ([2]; FDA approved drug)	duration of action ([2]; animal data)	binding to uninjured mucosa ([2]; compared with defective mucosa)	binding to duodenal and gastric ulcers and to gastric erosions ([2]; erosions produced by ethanol and anti-inflammatory drugs)	inhibition of the action of pepsin [3]	stability in solution [4]
Sucralfate	shown the safety and efficacy	bind selectively to ulcerated areas	sustained	to a much lesser extent	binds to duodenal and gastric ulcers and to gastric erosions	inhibits the action of pepsin	
potassium sucrose sulfate [Tc-99m labeled potassium sucrose sulfate]							stable
